According to ChEMBL document CHEMBL3769405, “Discovery of Potent and Selective Inhibitors of Phosphodiesterase 1 for the Treatment of Cognitive Impairment Associated with Neurodegenerative and Neuropsychiatric Diseases” (J Med Chem, 2016):
In brackets after ≈: the same amount, converted by molar mass.

Legend:
[1] = Selectivity ratio of Ki for recombinant full lenght human PDE4A to bovine brain PDE1
[2] = Inhibition of bovine brain PDE1 using fluorescent labeled cGMP as substrate after 15 mins by IMAP assay; parameters: species or system Bos taurus
[3] = target: 3',5'-cyclic-AMP phosphodiesterase 4A (Homo sapiens, UniProt P27815); experiment: Inhibition of recombinant full lenght human PDE4A using fluorescent labeled cAMP as substrate after 15 mins by IMAP assay
[4] = Intrinsic clearance in human liver microsomes; assay type: ADME; conditions: read-out: CLH
[5] = Solubility of compound in PBS; assay type: physicochemical
[6] = AUClast in C57BL/6 mouse plasma at 10 mg/kg administered through oral gavage; assay type: ADME, organism-based; parameters: dose 10 mg/kg, time 0 - last, route oral
[7] = AUClast in C57BL/6 mouse brain at 10 mg/kg administered through oral gavage; assay type: ADME, organism-based; parameters: dose 10 mg/kg, time 0 - last, route oral
[8] = Lipophilicity, logD of compound at pH 7.4; assay type: physicochemical; conditions: buffer
[9] = Cmax in C57BL/6 mouse brain at 10 mg/kg administered through oral gavage; assay type: ADME, organism-based; parameters: dose 10 mg/kg, route oral
[10] = Lipophilicity, logD of compound at pH 1.7; assay type: physicochemical; conditions: buffer
in vivo = conditions: C57BL/6, mouse, brain/plasma
[11] = Cmax in C57BL/6 mouse plasma at 10 mg/kg administered through oral gavage; assay type: ADME, organism-based; parameters: dose 10 mg/kg, route oral

3',5'-cyclic-AMP phosphodiesterase 4A, sequence (P27815 whole entry): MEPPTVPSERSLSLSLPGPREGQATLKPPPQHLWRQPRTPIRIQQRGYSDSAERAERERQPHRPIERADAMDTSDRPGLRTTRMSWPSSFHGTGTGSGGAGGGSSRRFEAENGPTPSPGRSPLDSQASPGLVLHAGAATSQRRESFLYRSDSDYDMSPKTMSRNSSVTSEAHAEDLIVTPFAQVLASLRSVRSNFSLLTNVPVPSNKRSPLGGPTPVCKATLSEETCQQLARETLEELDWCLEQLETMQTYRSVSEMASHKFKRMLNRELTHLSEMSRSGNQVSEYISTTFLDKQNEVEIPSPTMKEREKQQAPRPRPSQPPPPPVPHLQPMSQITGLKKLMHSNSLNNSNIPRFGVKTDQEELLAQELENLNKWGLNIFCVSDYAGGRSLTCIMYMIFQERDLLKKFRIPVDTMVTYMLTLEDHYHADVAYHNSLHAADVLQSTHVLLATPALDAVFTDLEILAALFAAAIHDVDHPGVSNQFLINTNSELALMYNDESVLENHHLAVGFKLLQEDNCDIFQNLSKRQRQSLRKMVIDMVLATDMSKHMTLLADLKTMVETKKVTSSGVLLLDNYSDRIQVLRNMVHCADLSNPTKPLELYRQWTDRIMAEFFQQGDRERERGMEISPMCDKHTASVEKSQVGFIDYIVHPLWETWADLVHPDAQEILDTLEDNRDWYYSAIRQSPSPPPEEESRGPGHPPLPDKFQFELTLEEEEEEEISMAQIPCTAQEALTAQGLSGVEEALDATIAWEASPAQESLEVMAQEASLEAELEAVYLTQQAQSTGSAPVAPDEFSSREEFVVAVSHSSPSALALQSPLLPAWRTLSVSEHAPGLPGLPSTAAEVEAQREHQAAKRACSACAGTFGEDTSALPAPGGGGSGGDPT

Structure (SMILES) | Ratio Ki [1] | Ki [2] [nM] | Ki [3] [nM] | also measured
CN1C(=O)c2c(nn(Cc3ccc(-c4ccc(F)cc4)cc3)c2Nc2ccccc2)N2C1=N[C@@H]1CCC[C@@H]12 | 1120 | 0.41 | 460 | –
CN1C(=O)c2c(nn(Cc3ccc(-c4cccc(F)n4)cc3)c2Nc2ccccc2)N2C1=N[C@@H]1CCC[C@@H]12 [LENRISPODUN] | – | 0.15 | – | –
O=C1NC2=N[C@@H]3CCC[C@@H]3N2c2nn(Cc3ccc(C(F)(F)F)cc3)c(Nc3ccccc3)c21 | 2 | 290 | 550 | CLint scaled [4]: 22 mL/min/kg
CCCC(C)Nc1c2c(nn1Cc1ccc(-c3cccc(F)n3)cc1)N1C(=N[C@@H]3CCC[C@@H]31)N(C)C2=O (some centres undefined) | 2000 | 1.3 | 2600 | –
CN1C(=O)c2c(nn(Cc3ccc(-c4cccc(F)n4)cc3)c2Cc2ccc(F)cc2)N2C1=N[C@@H]1CCC[C@@H]12 | 339 | 2.3 | 780 | solubility [5]: < 1 µM; AUC(0-t) [6]: 69 ng·h/mL; AUC(0-t) [7]: 109 ng·h/mL; logD [8]: > 5; Cmax [9]: 81 ng/mL; logD [10]: 1.42; CLint scaled [4]: 81 mL/min/kg; Kp (in vivo): 1.6; Cmax [11]: 44 ng/mL
CN1C(=O)c2c(nn(Cc3ccc(-c4ccccc4)cc3)c2Nc2ccccc2)N2CCN=C12 | 1520 | 29 | 44000 | –
CN1C(=O)c2c(nn(Cc3ccc(-c4cccc(F)n4)cc3)c2Nc2ccccc2)N2C1=N[C@H]1CCC[C@H]12 | – | 5.4 | – | CLint scaled [4]: 51 mL/min/kg
CC(C)CNc1c2c(nn1Cc1ccc(-c3cccc(F)n3)cc1)N1C(=N[C@@H]3CCC[C@@H]31)N(C)C2=O | 851 | 7.4 | 6300 | –
CN1C(=O)c2c(nn(Cc3ccc(S(C)(=O)=O)cc3)c2Nc2ccccc2)N2C1=N[C@@H]1CCC[C@@H]12 | 133 | 0.49 | 65 | –
CN1C(=O)c2c(nn(Cc3ccc(-c4ccc(F)cn4)cc3)c2Nc2ccccc2)N2C1=N[C@@H]1CCC[C@@H]12 | 6760 | 0.074 | 500 | CLint scaled [4]: 125 mL/min/kg
CN1C(=O)c2c(nn(Cc3ccc(-c4cccc(F)n4)cc3)c2N)N2C1=N[C@@H]1CCC[C@@H]12 | 414 | 5.8 | 2400 | –
CC(C)Nc1c2c(nn1Cc1ccc(-c3cccc(F)n3)cc1)N1C(=N[C@@H]3CCC[C@@H]31)N(C)C2=O | 458 | 12 | 5500 | –
CN1C(=O)c2c(nn(Cc3ccc(-c4ccccc4)cc3)c2Nc2ccccc2)N2CCCN=C12 | > 1500 | 65 | > 100000 | –
CN1C(=O)c2c(nn(Cc3ccc(-c4cccc(F)n4)cc3)c2Cc2ccccc2)N2C1=N[C@@H]1CCC[C@@H]12 | 350 | 2.2 | 770 | solubility [5]: < 1 µM; AUC(0-t) [6]: 134 ng·h/mL; AUC(0-t) [7]: 154 ng·h/mL; logD [8]: 4.96; Cmax [9]: 101 ng/mL; logD [10]: 1.36; CLint scaled [4]: 165 mL/min/kg; Kp (in vivo): 1.2; Cmax [11]: 86 ng/mL
CN1C(=O)c2c(nn(Cc3ccc(-c4ccccn4)cc3)c2Nc2ccccc2)N2C1=N[C@H]1CCC[C@H]12 | – | 5.3 | 8400 | CLint scaled [4]: 72 mL/min/kg
CNc1c2c(nn1Cc1ccc(-c3cccc(F)n3)cc1)N1C(=N[C@@H]3CCC[C@@H]31)N(C)C2=O | 154 | 28 | 4300 | –
CN1C(=O)c2c(Nc3ccccc3)n[nH]c2N2C1=N[C@@H]1CCC[C@@H]12 | 7 | 1400 | – | –
CN1Cc2c(nn(Cc3ccc(-c4ccccn4)cc3)c2Nc2ccccc2)N2C1=N[C@@H]1CCC[C@@H]12 | 720 | 25 | 18000 | CLint scaled [4]: 59 mL/min/kg
CCCNc1c2c(nn1Cc1ccc(-c3cccc(F)n3)cc1)N1C(=N[C@@H]3CCC[C@@H]31)N(C)C2=O | 413 | 15 | 6200 | –
CN1C(=N)c2c(nn(Cc3ccc(C(F)(F)F)cc3)c2Nc2ccccc2)N2C1=N[C@@H]1CCC[C@@H]12 | 6.4 | 2800 | 18000 | CLint scaled [4]: 32 mL/min/kg
CN1Cc2c(nn(Cc3ccc(C(F)(F)F)cc3)c2Nc2ccccc2)N2C1=N[C@@H]1CCC[C@@H]12 | 841 | 44 | 37000 | CLint scaled [4]: 64 mL/min/kg
CN1C(=O)c2c(nn(Cc3ccc(-c4ccccc4)cc3)c2Nc2ccccc2)N2C[C@@H](COCc3ccccc3)N=C12 | > 400 | 250 | > 100000 | –

Structure (SMILES) | Ratio Ki [1] | Ki [2] [nM] | Ki [3] [nM] | also measured
CN1C(=O)c2c(nn(Cc3ccc(-c4cc(F)ccn4)cc3)c2Nc2ccccc2)N2C1=N[C@@H]1CCC[C@@H]12 | 5320 | 0.062 | 330 | CLint scaled [4]: 218 mL/min/kg
CN1C(=O)c2c(nn(Cc3ccc(-c4cccc(F)n4)cc3)c2NC2CCCCC2)N2C1=N[C@@H]1CCC[C@@H]12 | 571 | 2.8 | 1600 | –
CN1C(=O)c2c(nn(Cc3ccc(-c4cccc(F)n4)cc3)c2N(C)c2ccccc2)N2C1=N[C@@H]1CCC[C@@H]12 | 24 | 31 | 740 | –
CN1C(=O)c2c(nn(Cc3ccc(-c4ccccc4)cc3)c2Nc2ccccc2)N2C[C@@H](CO)N=C12 | 683 | 6 | 4100 | –
CN1C(=O)c2c(nn(Cc3ccc(-c4ccccc4)cc3)c2Nc2ccccc2)N2CC(C3CCOC3)N=C12 (centres undefined) | 857 | 14 | 12000 | –
CN1C(=O)c2c(nn(Cc3ccc(-c4cccc(F)n4)cc3)c2N2CCCC2)N2C1=N[C@@H]1CCC[C@@H]12 | 29 | 160 | 4600 | –
C[C@H]1CN=C2N(C)C(=O)c3c(nn(Cc4ccc(-c5ccccc5)cc4)c3Nc3ccccc3)N21 | 3750 | 8 | 30000 | –
CN1C(=O)c2c(nn(Cc3ccc(-c4cccc(F)n4)cc3)c2Nc2ccncc2)N2C1=N[C@@H]1CCC[C@@H]12 | 12 | 31 | 370 | –
CN1C(=O)c2c(nn(Cc3ccc(-c4ncccc4F)cc3)c2Nc2ccccc2)N2C1=N[C@@H]1CCC[C@@H]12 | 2740 | 0.073 | 200 | CLint scaled [4]: 276 mL/min/kg
CN1C(=O)c2c(nn(Cc3ccc(-c4cccc(F)n4)cc3)c2NC2CCCC2)N2C1=N[C@@H]1CCC[C@@H]12 | 229 | 24 | 5500 | –
CN1C(=O)c2c(nn(Cc3ccc(-c4cccc(F)n4)cc3)c2N(C)C)N2C1=N[C@@H]1CCC[C@@H]12 | 9.2 | 120 | 1100 | –
CC(C)[C@@H]1CN2C(=N1)N(C)C(=O)c1c2nn(Cc2ccc(-c3ccccc3)cc2)c1Nc1ccccc1 | 652 | 2.3 | 1500 | –
CN1C(=O)c2c(nn(Cc3ccc(C4CCCN4)cc3)c2Nc2ccccc2)N2C1=N[C@@H]1CCC[C@@H]12 (some centres undefined) | 750 | 1.6 | 1200 | –
CN1C(=O)c2c(nn(Cc3ccc(-c4cccc(F)n4)cc3)c2Oc2ccccc2)N2C1=N[C@@H]1CCC[C@@H]12 | 83 | 3 | 250 | solubility [5]: 8 µM (≈ 4.07 µg/mL); AUC(0-t) [6]: 210 ng·h/mL; AUC(0-t) [7]: 192 ng·h/mL; logD [8]: 4.61; Cmax [9]: 170 ng/mL; logD [10]: 1.05; CLint scaled [4]: 214 mL/min/kg; Kp (in vivo): 0.9; Cmax [11]: 165 ng/mL
CN1C(=O)c2c(Nc3ccccc3)nn(CC3CCCC3)c2N2C1=N[C@@H]1CCC[C@@H]12 | 2.6 | 770 | 2000 | –
CN1C(=O)c2c(nn(Cc3ccc(S(N)(=O)=O)cc3)c2Nc2ccccc2)N2C1=N[C@@H]1CCC[C@@H]12 | 857 | 1.4 | 1200 | solubility [5]: > 100 µM; AUC(0-t) [6]: 785 ng·h/mL; AUC(0-t) [7]: 15 ng·h/mL; logD [8]: 1.96; Cmax [9]: 16 ng/mL; logD [10]: -0.96; Kp (in vivo): 0.02; Cmax [11]: 650 ng/mL
CN1C(=O)c2c(nn(Cc3ccc(-c4cccc(F)n4)cc3)c2NCc2ccccc2)N2C1=N[C@@H]1CCC[C@@H]12 | 816 | 4.9 | 4000 | –
CN1C(=O)c2c(nn(Cc3ccc(-c4cccc(F)n4)cc3)c2Oc2ccc(F)cc2)N2C1=N[C@@H]1CCC[C@@H]12 | 33 | 6.6 | 220 | solubility [5]: 7 µM (≈ 3.69 µg/mL); AUC(0-t) [6]: 119 ng·h/mL; AUC(0-t) [7]: 102 ng·h/mL; logD [8]: 4.77; Cmax [9]: 64 ng/mL; logD [10]: 1.21; CLint scaled [4]: 266 mL/min/kg; Kp (in vivo): 0.9; Cmax [11]: 88 ng/mL
CN1C(=O)c2c(nn(Cc3ccc(-c4ccccc4)cc3)c2Nc2ccccc2)N2CC(C)(C)CN=C12 | 2060 | 4.8 | 9900 | –
C[C@@H]1CN2C(=N1)N(C)C(=O)c1c2nn(Cc2ccc(-c3ccccc3)cc2)c1Nc1ccccc1 | 1030 | 3.3 | 3400 | –
CN1C(=O)c2c(nn(Cc3ccc(C4CCCN4C)cc3)c2Nc2ccccc2)N2C1=N[C@@H]1CCC[C@@H]12 (some centres undefined) | 1150 | 2.7 | 3100 | –
CN1C(=O)c2c(nn(Cc3ccc(-c4ccccc4)cc3)c2Nc2ccccc2)N2C[C@@H](Cc3ccccc3)N=C12 | 33 | 390 | 13000 | –
